Measurements reported in patent US5990096A (priority 1992, dated 1999).

How the values were obtained:
[1] = in vivo
[2] = system: Fisher Bladder Carcinoma; assay: Intratumour injection study: radioactivity remaining in tumor tissue; assay type: in vivo, Fisher 344 rat; conditions: intratumor injection
Description: (§1) 1. These drugs were administrated by intratumor injection. (right frank)
(§2) Group A:H-5-FU 5 mg/kg+saline/0.3 ml (i.t.)
(§3) B:H-5-FU 5 mg/kg+HA 15 mg/kg/0.3 ml (s.c.)
(§4) 3H-FU without or with HA was injected as a single dose (0.3 ml) into the center of the tumor (on the right frank) with a 30 gause needle. At the same time, injection into normal skin (on the left frank) was carried out similarly.
(§5) The tumor and skin was then removed at different times (1 h,6 hr) for counting radioactivity of the remaining content in the tissue.

[3] = Intratumour injection study: radioactivity remaining in normal skin; assay type: in vivo, Fisher 344 rat; conditions: injection into normal skin
Description: as §1
At the same time, injection into normal skin (left frank) was carried out similarly.
as §2, §3, §4, §5

In the case of O=C(O)Cc1ccccc1Nc1c(Cl)cccc1Cl [Oral diclofenac acid], the Side effects [1] is reported as “gastritis”.
With O=c1[nH]cc(F)c(=O)[nH]1 [Formulation 3H-5FU, 5-Fluoracil] the “Radioactivity retention in tumor tissue” value [2] was “immediately disappeared” and the “Radioactivity clearance from normal tissue (skin)” value [3] was “immediately disappeared”.
